Series [1] is described as follows: method code SF-AS, from Hansch, C., Leo, A., & Hoekman, D. (1995). Exploring QSAR: hydrophobic, electronic, and steric constants (Vol. 2). Washington, DC: American Chemical Society.
Series [2] in a line: method code SF-HPLC, from Hansch, C., Leo, A., & Hoekman, D. (1995). Exploring QSAR: hydrophobic, electronic, and steric constants (Vol. 2). Washington, DC: American Chemical Society. Particulars: pH 7.4.
Series [3] in a line: method code G, from Hansch, C., Leo, A., & Hoekman, D. (1995). Exploring QSAR: hydrophobic, electronic, and steric constants (Vol. 2). Washington, DC: American Chemical Society.

With `Cc1ccc(NN=C(C#N)C#N)c([N+](=O)[O-])c1`, the logD (in general, the decadic logarithm of the distribution of all forms, ionised or not, between an organic phase and buffer at a given pH) in series [1] (pH 7.2) amounted to 2.5. On to `COc1ccc2cc(C(C)C(=O)OC(O)C(=O)N(C)CCO)ccc2c1` (stereo not given), for which the logD in series [2] was determined as 2.01. In the case of `CCC(=O)C(Cc1ccc(C)cc1)S(=O)(=O)c1ccc(C)cc1` (stereo not given), the logP (commonly the decadic logarithm of the partition coefficient of the neutral form, usually between octanol and water) in series [3] amounted to 3.3. With `CCN1CCCC1CNC(=O)c1cc(NS(N)(=O)=O)ccc1OC` (stereo not given), the logP was 2.02. As to `O=C(Cn1c(=O)sc2ccc(Cl)cc21)N1CC[N+]([O-])(CCO)CC1`, the logD in series [1] (pH 7.4) was 0.05.

The compound `CC(C)=CC1C(C(=O)OCc2ccc(C)cc2C)C1(C)C` (stereo not given) showed a logP of 4.5.

For `CNc1nc(Cl)c(SC)c(N2CCN(C)CC2)n1`, the logP is 2.99. As for `N=C1C=CC(=C(c2ccc(N)cc2)c2ccc(N)cc2)C=C1`, the logP was -0.21. In the case of `OCCN1CCN(C2CC(c3ccc(F)cc3)c3ccccc32)CC1` (stereo not given), the log partition coefficient (logP) came out at 2.95. `c1ccc(NCCCOc2cccc(CN3CCCCC3)c2)nc1` yielded a logP of 4.29.

`O=C1NC(=O)[C@@]2(CCOc3ccc(F)cc32)N1` returned a logP of 0.78.

With `FC(F)(F)C(=NOCC1OCCO1)c1ccc(Cl)cc1`, the logP came to 3.9. On to `OCCN1CCN(CCCC2c3ccc(F)cc3Sc3ccc(C(F)(F)F)cc32)CC1` (stereo not given), for which the logP amounted to 4.47.

`CCN1CCCC1CNC(=O)c1cc(N(C)S(C)(=O)=O)c(Cl)cc1OC` (stereo not given) showed a log partition coefficient (logP) of 2.62. In turn, `CC(=O)c1c(C)n(C)c2ccccc12` showed a logP of 2.03. `CC1(C)CN(CCN2CCN(c3cccc(Cl)c3)C2=O)C1` had a logP of 3.91. In series [1] (pH 7.4), `O=C(NP(=O)(N1CC1)N1CC1)c1ccccc1I` gave a logD of 1.05. Consider `O=C(O)Cc1nn(Cc2ccc(Br)cc2F)c(=O)c2ccccc12`, for which the logP is 2.68. Compound `O=C(NP(=O)(N1CC1)N1CC1)c1ccc(Br)cc1` gave a logD in series [1] (pH 7.4) of 0.97.

Compound `Cc1ccccc1NN=C(C#N)C#N` had a logD in series [1] (pH 7.2) of 2.38.

Take `CCN1CCC[C@H]1CNC(=O)c1cc(I)ccc1OC`: the logP was 3.23. `N#CC(C#N)=NNc1ccccc1Br` came in with a logD in series [1] (pH 7.2) of 3.11. Turning to `O=C1NCN(c2ccccc2)C12CCN(CCCC(c1ccc(F)cc1)c1ccc(F)cc1)CC2`, the logP is 5.86. In series [3], `CCC(=O)C(Cc1ccccc1)S(=O)(=O)c1ccccc1` (stereo not given) came in with a logP of 1.82. Regarding `OCCN1CCN(C2CC(c3ccc(F)cc3)c3ccc(F)cc32)CC1` (stereo not given), the logP turned out to be 3.3. The same measure, in the same setting: for `c1ccc(Cn2ncnn2)cc1` the value was 1.03. For the compound `CCC(=O)C(Cc1ccc(Cl)cc1)S(=O)(=O)c1ccc(C)cc1` (stereo not given), in series [3], the logP worked out at 3.43. Compound `C1=Cc2ccc3c4c(ccc(c24)C1)-c1ccccc1-3` gave a logP of 5.78. As for `O=C(O)C[N+]1([O-])CCN(C(=O)Cn2c(=O)sc3ccc(Cl)cc32)CC1`, the logD in series [1] (pH 2.1) came to 0.21. On to `Cc1ccc2c(c1)C(N1CCN(CCO)CC1)CC2c1ccc(F)cc1` (stereo not given), for which the logP was determined as 3.57. For the compound `CCc1cccc2c1OCCOCCOCCOCCOCCO2`, the logP in series [1] was found to be 0.98. `O=C(O)Cc1c[nH]c2ccc(O)cc12` showed a logP of 1.17. Turning to `N#CC(C#N)=NNc1cccc(Cl)c1Cl`, in series [1] (pH 7.2), the logD came out at 3.85.

Compound `CCC(=O)C(Cc1ccc(Cl)cc1)S(=O)(=O)c1ccccc1` (stereo not given) came in with a logP in series [3] of 2.69. Consider `O=C(O)Cc1nn(Cc2nc3cc(F)ccc3s2)c(=O)c2ccccc12`, for which the logP was determined as 1.86. Regarding `COc1cc(Cc2cnc(N)nc2N)cc(Br)c1OC`, the logP is 2.23. The compound `CCN1CCCC1CNC(=O)c1cc(NS(N)(=O)=O)c(Cl)cc1OC` (stereo not given) gave a logP of 2.66. Same read-out and setting: for `COc1ccc(S(N)(=O)=O)cc1C(=O)NC1CC2CCCC1N2Cc1ccccc1` (stereo not given) the value was 2.88. Consider `CC(C)(C)c1ccc2c(c1)OCCOCCOCCOCCOc1cc(C(C)(C)C)ccc1OCCOCCOCCOCCO2`, for which, in series [1], the logP was 3.32. For the compound `O=c1[nH]c2ccccc2n1C1CCN(CCOc2ccccc2)CC1`, the logP was 4.18. In turn, `CC(=O)c1ccc2c(c1)OCCOCCOCCOCCOCCO2` gave a lipophilicity (logP) in series [1] of -0.05. `OC1(c2ccc(Cl)cc2)CCN(CCCC2(c3ccc(F)cc3)OCCO2)CC1` yielded a logP of 3.84.

Regarding `CCC(=O)C(Cc1ccccc1)S(=O)(=O)c1ccc(C)cc1` (stereo not given), in series [3], the logP came to 2.45. On the same count and under the same terms, for `CCC(=O)C(Cc1ccc(OC)cc1)S(=O)(=O)c1ccc(C)cc1` (stereo not given) the value was 2.47. In series [1] (pH 6.4), `CC1=NN(CCOc2ccc3ccccc3c2)C(=O)C1` displayed a logD of 2.74.

The compound `N#CC(C#N)=NNc1ccccc1C(F)(F)F` yielded a logD in series [1] (pH 7.2) of 4.2. Turning to `CCC(=O)C(Cc1ccc(C)cc1)S(=O)(=O)c1ccccc1` (stereo not given), the lipophilicity (logP) in series [3] stood at 2.7. `Cc1cc2c(s1)Nc1ccc(F)cc1N=C2N1CCN(C)CC1` displayed a logP of 2.98. For `c1ccc2c(c1)OCCOCCOc1ccccc1OCCO2`, the logP in series [1] worked out at 2.21. Compound `CCN1CCCC1CNC(=O)c1cc(N(C)S(C)(=O)=O)ccc1OC` (stereo not given) registered a lipophilicity (logP) of 2.29.

The compound `c1ccc(Cn2cnnn2)cc1` displayed a logP of 1.36. `c1ccc(Cn2cccc2)cc1`: the logP was 2.71. On the same count and under the same terms, for `CN1C(C(=O)Nc2ccccn2)=C(O)c2sc(Cl)cc2S1(=O)=O` the value was 2.62. `CCCN1CCCC1CNC(=O)c1cc(S(N)(=O)=O)ccc1OC` (stereo not given) displayed a logP of 2.06. Compound `C#CC(C)(C)NS(=O)(=O)c1ccc(OC)c(C(=O)NCC2CCCN2CC)c1` (stereo not given) came in with a logP of 2.8.

The values above are taken from the SangsterLogP compilation.
